Results reported in patent publication US7659278B2, “Use of low molecular weight compounds for preparing a medicament useful in treating mutant p53 mediated diseases” (Aprea AB, priority 2002, dated 2010).

Assays:
[1] = system: endogenous mutant p53 proteins; format: biochemical, human; settings: cell extracts of human tumor cell lines, band shift
Protocol: PAb421 antibody was added to all reaction mixtures. […] Monoclonal antibody PAb421 was added to the reaction mixtures in lanes 2-8; PAb1801 was added to the reaction mixtures in lanes 9-15.
(§1) The GST-p53 proteins were prepared as described (Selivanova et al., 1997). Band shift assays were performed in binding buffer containing 100 mM HEPES pH 7.5, 50 mM KCl, 1 mg/ml BSA, 0.1% Triton X-100, 2 mM MgC12 and 1 mM DTT essentially as in (Selivanova et al., 1996).

[2] = system: p53-responsive EGFP reporter in SKOV-His-175 cells; assay: p53-responsive EGFP reporter in SKOV-His-175 cells; format: cell-based, human
Protocol: FIG. 9B, mutant p53-dependent activation of the wild-type p53-responsive EGFP reporter in PRIMA-1-treated SKOV-His-175 cells. […] FIG. 9C, MIRA-1 induced wild-type p53-responsive EGFP reporter in SKOV-His-175 cells.
The p53-EGFP plasmid contains 13 synthetic p53 consensus DNA binding sites in front of the EGFP coding sequence. Transient transfections experiments were performed with Lipofectamine 2000 according to the manufacturer's recommendations (Invitrogemm Life Technologies, Groningen, The Netherlands).
We also transiently transfected SKOV-His-175 cells with a p53-responsive EGFP reporter.

[3] = system: MDM2 and p21 in HCT 116 colon carcinoma cells (wild type p53); assay: Western blot of MDM2 and p21, HCT 116; format: cell-based, human
[4] = system: p53-responsive PG-luciferase reporter in Saos-2-His-273 cells; assay: PG-luciferase p53 reporter assay in Saos-2-His-273; format: cell-based, human
Protocol: Transactivation assays using p53-responsive promoter constructs linked to the luciferase reporter gene (PG-luc) were performed by the Dual Luciferase Reporter Assay System (Promega) according to the manufacturer. […] A luciferase activity was assayed 1; 3.5 and 15 hours post-treatment.
Whereas compound MIRA-1 stimulated luciferase expression 2-fold already after 3.5 hours, 2-fold induction by compound PRIMA-I was achieved only after 15 hours of treatment.

[5] = target: T1, GST-wild type p53 protein (Homo sapiens, UniProt P04637); assay: Band shift assay, heat-inactivated GST-wild type p53; format: biochemical; settings: protein inactivated at 37° C. for 30 min
T1 construct: made in house
Protocol: Lane 3, inactivation of DNA binding of wtp53 by heating.
as §1
Therefore, the restoration of the DNA binding of this mutant was regarded as an exceptionally difficult task.

Saos-2-His-273 cell line = assay: Library screening / WST-1 growth suppression and growth curves, Saos-2-His-273; format: cell-based, human; settings: for growth suppression: with vs without mutant p53 expression, WST-1
Protocol: In contrast, the effect of treatment on Saos-2 cells lacking p53 expression was rather minor. […] The degree of WST-1 reduction, which reflects a number of living cells, was measured by microplate reader at λ490 nm according to manufacturer (Roche). The growth suppression was calculated as a difference in absorbance at λ 490 nm between untreated and treated cells and expressed in a percent from untreated control. Growth suppression=100%×(control absorbance−treated absorbance)/control absorbance. […] The experimental set up was as described in FIG. 2A. The differences in a viability were statistically significant according to an independent t-test.
(§2) Saos-2-His-273 cell line stably transfected with construct allowing expression of mutant His-273 p53 in a tetracycline-dependent manner was used for screening (Selivanova et al., 1997). p53 expression was inhibited by incubation of cells with doxycycline (5 μg/ml). Cells were grown in 96-well plates at a density of 3000 cells per well with or without doxycycline and treated with 25 μM of the compounds from the NCI library of low molecular weight (LMW) compounds. After 48 hours of incubation the proliferative cell reagent WST-1 (Roche) was added to the cells. The degree of WST-1 reduction, which reflects cell viability, was measured by microplate reader at λ490 nm according to the manufacturer (Roche).
as §2, with “1997).” for “1997). p53 expression was inhibited by incubation of cells with doxycycline (5 μg/ml).”, “doxycycline. The treatment was done at a concentration of” for “doxycycline and treated with”, “each chemical” for “the compounds”, “is proportional to the” for “reflects”, “by a” for “by”, “λ 490=n” for “λ490 nm”

[6] = system: MDM2 and p21 in SW480 colon carcinoma cells (endogenous His-273 mutant p53); assay: Western blot of MDM2 and p21, SW480; format: cell-based, human
Protocol: The expression of proteins was analyzed using Western blot. […] FIG. 10C pictures induction of p53 target genes in PRIMA-1-treated SW480 colon carcinoma cells carrying endogenous His-273/Ser-309 mutant p53.

Saos-2-His-273 cells = assay: Apoptosis induction by FACS (sub-G1, propidium iodide), Saos-2-His-273; format: cell-based, human; settings: for time to apoptosis induction after treatment: data not shown; for p53 dependence of apoptosis induction: presence or absence of doxycyclin
Protocol: Induction of apoptosis was determined by FACS analysis of ethanol fixed cells stained with propidium iodide (PI) as percentage of a sub-G1 population. […] The percentage of dead cells in non-treated cultures and in controls treated with caspase inhibitors only was subtracted. […] Hoechst staining was used to stain cell nuclei.
Cells were placed on 12-well plate at a density of 30000/cm^2 and treated with compounds. After 48 h incubation cells were harvested by trypsinization, fixed with 70% ethanol, treated with RNase A (0.25 mg/ml) and stained with propidium iodide (0.02 mg/ml). Samples were analyzed on a Becton Dickinson FACScan. Data were analyzed by the CellQuest software, version 3.2.1.
Induction of cell death was determined by FACS analysis of ethanol-fixed cells stained with propidium iodide (PI) as percentage of sub-G1 population.

[7] = system: human tumour cell lines with different p53 status (p53 null, wild type p53, mutant p53); assay: WST-1 growth suppression in cell lines with different p53 status; format: cell-based; settings: mutant p53 vs p53 null and wild type p53 cell lines
Protocol: The degree of WST-1 reduction, which reflects a number of living cells, was measured by microplate reader at λ490 nm according to manufacturer (Roche). The growth suppression was calculated as a difference in absorbance at λ 490 nm between untreated and treated cells and expressed in a percent from untreated control. Growth suppression=100%×(control absorbance−treated absorbance)/control absorbance. […] The experimental set up was as described in FIG. 2A.
The human cell lines were as follows. p53 null: Saos-2 osteosarcoma, K562 acute myeloid leukemia, and HL60 promyelocytic leukemia Wild type p53 expressing cells: NHF normal human fibroblasts, HeLa cervical carcinoma (carries HPV E6 protein, leading to p53 degradation), U2OS osteosarcoma, and EBV-positive IARC 171 lymphoblastoid cell line. […] In addition, mouse p53 null J3D T-cell lymphoma line was used.

T1 sequence (P04637 whole entry): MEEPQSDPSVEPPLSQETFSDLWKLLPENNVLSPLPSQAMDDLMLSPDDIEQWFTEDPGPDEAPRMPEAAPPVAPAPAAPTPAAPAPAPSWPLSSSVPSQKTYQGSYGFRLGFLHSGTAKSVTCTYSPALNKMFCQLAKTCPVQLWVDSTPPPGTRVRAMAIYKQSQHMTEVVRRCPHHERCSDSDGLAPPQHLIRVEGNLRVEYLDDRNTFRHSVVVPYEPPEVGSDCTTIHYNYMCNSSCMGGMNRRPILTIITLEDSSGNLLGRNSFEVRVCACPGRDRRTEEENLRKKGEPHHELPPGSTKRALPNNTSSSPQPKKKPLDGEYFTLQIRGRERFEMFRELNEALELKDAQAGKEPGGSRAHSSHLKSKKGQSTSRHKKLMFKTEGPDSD

SMILES	mutant p53 proteins with restored specific DNA binding [1]	EGFP reporter expression ([2]; 5 μM for 24 hours)	MDM2 and p21 protein levels [3]	stimulation of luciferase expression ([4]; after 3.5 hours) [fold]	restoration of specific DNA binding after heat inactivation [5]	growth suppression (Saos-2-His-273 cell line)	induction of MDM2 and p21 [6]	time to apoptosis induction after treatment (Saos-2-His-273 cells) [h]	p53 dependence of apoptosis induction (Saos-2-His-273 cells)	growth suppression by p53 status [7]	EGFP reporter expression ([2]; cells expressing mutant p53, 24 hours)	EGFP reporter expression ([2]; presence of doxycycline (p53 off))	induction of luciferase expression ([4]; after 15 hours of treatment) [fold]	growth of cells (growth curves) (Saos-2-His-273 cell line; absence of mutant p53 expression)	growth of cells (growth curves) (Saos-2-His-273 cell line; cells expressing mutant p53)
CCCOCN1C(=O)C=CC1=O [MIRA-1, 1-(propoxymethyl)-maleimide]	3 out of 14	induction of EGFP was also observed	did not cause any significant changes	2	able to restore the specific DNA binding of the GST-wild type p53 protein	suppressed the growth of cells expressing mutant p53 but did not affect the growth of cells lacking p53 expression	induced MDM2 and p21	6 to 12	occurred only in the presence of p53 expression	suppressed the growth of mutant p53-expressing cells more efficiently then p53 null and wild type p53 containing cells					
O=C1C2CCN(CC2)C1(CO)CO [PRIMA-1, 2,2-bis(hydroxymethyl)-1-azabicyclo[2.2.2]octan-3-one]	13 out of 14		did not cause any significant changes		able to restore the specific DNA binding of the GST-wild type p53 protein	suppressed the growth of cells expressing mutant p53 but did not affect the growth of cells lacking p53 expression	induced MDM2 and p21	48	occurred only in the presence of p53 expression	suppressed the growth of mutant p53-expressing cells more efficiently then p53 null and wild type p53 containing cells	strong induction of EGFP expression	did not express detectable levels of EGFP	2	only caused a minor reduction in growth rate	completely inhibited growth
